Results on 16 molecules are retold here after patent US20220356162A1, “Heterocyclic Compounds as Lipoxygenase Inhibitors” (Dr. Reddy's Institute of Life Sciences, priority 2019, published 2022).

Read-outs that look alike come from different tables or passages of the source.

For data set [1], the target named is T1, human 12R-LOX enzyme (Homo sapiens, UniProt O75342).
T1 construct: Coding region of the cDNA was amplified from the basic vector pCMV6Neo-12R-LOX (OriGene, USA) and was ligated into pET28(b); His-tag (N); made in house; host or cells: E. coli BL21 Rossetta DE3
T1 sequence (O75342 1-701): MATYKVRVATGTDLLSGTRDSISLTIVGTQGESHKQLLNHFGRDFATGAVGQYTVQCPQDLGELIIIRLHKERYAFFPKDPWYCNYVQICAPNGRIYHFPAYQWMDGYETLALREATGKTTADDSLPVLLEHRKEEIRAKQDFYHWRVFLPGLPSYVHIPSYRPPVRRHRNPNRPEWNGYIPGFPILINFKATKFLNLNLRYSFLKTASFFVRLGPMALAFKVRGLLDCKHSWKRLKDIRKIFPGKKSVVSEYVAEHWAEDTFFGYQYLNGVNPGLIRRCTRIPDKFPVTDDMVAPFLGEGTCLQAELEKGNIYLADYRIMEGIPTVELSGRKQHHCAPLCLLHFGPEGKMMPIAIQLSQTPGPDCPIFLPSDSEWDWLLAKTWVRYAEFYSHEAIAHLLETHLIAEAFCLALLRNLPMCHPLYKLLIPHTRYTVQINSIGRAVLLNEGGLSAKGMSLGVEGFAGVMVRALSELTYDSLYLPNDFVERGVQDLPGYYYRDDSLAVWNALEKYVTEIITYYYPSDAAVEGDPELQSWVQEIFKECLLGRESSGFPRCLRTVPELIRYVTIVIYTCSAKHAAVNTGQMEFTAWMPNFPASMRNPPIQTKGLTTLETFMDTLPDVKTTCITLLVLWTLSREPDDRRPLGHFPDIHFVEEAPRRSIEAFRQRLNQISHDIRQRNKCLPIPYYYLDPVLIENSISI
Description: Screening of compounds against 12R-LOX in isolated enzyme systems. It counts as biochemical. The settings on record: for inhibition at 100 µM: read-out: % Inhibition (at 100 μM). The source says: Human 12R-LOX gene was cloned and expressed as an N-terminally His-tagged fusion protein. Coding region of the cDNA was amplified from the basic vector pCMV6Neo-12R-LOX (OriGene, USA) and was ligated into pET28(b), a prokaryotic protein expression vector. E. coli BL21 Rossetta DE3 (an engineered strain of BL21) was transformed with the pET28(b) recombinant vector containing Kanamycin and chloramphenicol resistance gene as the selection markers. Single colony selected on kanamycin and chloramphenicol was checked for the expression of the protein. For this single colony was cultured at 37° C. in LB medium containing […] kanamycin and […] chloramphenicol to reach an absorbance of 0.6 at 600 nm. The cultured bacteria were then induced to express recombinant protein by using isopropyl β-D-thiogalactopyranoside (IPTG) (1 mM final concentration) at 18° C. The culture was incubated for 8-12 h and then the culture was spun down to collect the bacterial cells. The cells were re-suspended in the required amount of phosphate buffer saline (PBS) containing protease inhibitor. The cells were then lysed by sonication to extract the protein. The cells were sonicated for 5 min. and then debris was removed by centrifugation at 13000 rpm for 30 min at 4° C. The clear supernatant was collected and was used as the source of enzyme.
Purification of the recombinant 12R-LOX protein was performed using nickel-nitrilotriacetic acid (Ni-NTA) metal-affinity chromatography as per manufacturer's protocol. Briefly, Ni-NTA slurry (500 microliters for 150 mL of culture) was added to the cleared bacterial lysate and mixed gently by shaking at 4° C. for 60 min. Then the lysate—Ni-NTA slurry was loaded into a column. The column was then washed with 10 mL of washing buffer (50 mM phosphate buffer with 300 mM sodium chloride) containing 20 mM imidazole to remove loosely bound proteins. Then tightly bound proteins were eluted from the column with elution buffer (50 mM phosphate buffer with 300 mM sodium chloride) containing 300 mM imidazole. The purified protein fractions were then analyzed further by SDS-PAGE and western blotting to confirm the presence of 12R-LOX (FIGS. 1a and 1b).
Fractions with human 12R-LOX protein were added to a total volume of 0.3 mL of phosphate buffered saline (pH 7.4) and incubated with substrate, arachidonic acid methyl ester. The mixture was vortexed and incubated for 15 min at 37° C. […] After 5 min the reaction was acidified to pH 3 with 50 μL of acetic acid and then the proteins were precipitated with the addition of 0.3 mL of ice-cold methanol. The total mixture was centrifuged (14000 rpm for 15 min) to remove the proteins and the clear supernatant was analysed on reverse phase HPLC (RP-HPLC). The solvent system used was methanol:water:acetic acid in the ratio of 85:15:0.1 with a flow rate of 1 mL/min on a C18 column. The chromatograms were followed by monitoring the absorbance for HETE products at 235 nm. Individual peak areas in each chromatogram were taken for further comparison analysis.
Baicalein, the standard 12R-LOX inhibitor, was used as a positive control for all inhibition assays performed. The compounds were evaluated for their inhibitory action against human 12R-LOX enzyme at 100 μM concentration in vitro. Further, IC50 of the compounds of the present invention were determined.

The mark [2] stands for this setting: 12R-LOX inhibitory activities in vitro.
[3] abbreviates: 12R-LOX inhibitory activities in vitro, 100 μM concentration.

`Nc1ccc(O)cc1-c1cc(=O)c2ccccc2o1` [Compound 1, 2-(2-Amino-5-hydroxyphenyl)-4H-chromen-4-one]: the melting point (in general, the temperature, or range, at which the solid turns liquid) was 202 to 204 °C. The IC50 (in general, the concentration at which inhibition is half-maximal) in data set [1] (setting [2]) is 188 µM. Moreover, in data set [1] (setting [3]), the inhibition (in general, the drop in the measured response relative to a control, in per cent) at 100 µM is 40%.

In the case of `CS(=O)(=O)Nc1ccc(OS(C)(=O)=O)cc1-c1cc(=O)c2ccccc2o1` [Compound 2, 4-(Methylsulfonamido)-3-(4-oxo-4H-chromen-2-yl)phenylmethane Sulfonate], the inhibition at 100 µM in data set [1] (setting [3]) is 56%.

In turn, `Nc1cc(I)c(O)cc1-c1cc(=O)c2ccccc2o1` [Compound 3, 2-(2-Amino-5-hydroxy-4-iodophenyl)-4H-chromen-4-one] displayed an IC50 in data set [1] (setting [2]) of 97 µM. In addition, in data set [1] (setting [3]), the inhibition at 100 µM turned out to be 51%.

For the molecule `COc1ccc(N)c(-c2cc(=O)c3ccccc3o2)c1` [Compound 4, 2-(2-Amino-5-methoxyphenyl)-4H-chromen-4-one], the melting point was 118 to 120 °C.

In the case of `CCOc1ccc(N)c(-c2cc(=O)c3ccccc3o2)c1` [Compound 5, 2-(2-Amino-5-ethoxyphenyl)-4H-chromen-4-one], the melting point was 88 to 90 °C.

Molecule `C#CCOc1ccc(N)c(-c2cc(=O)c3ccccc3o2)c1` [Compound 6, 2-(2-Amino-5-(prop-2-ynyloxy)phenyl)-4H-chromen-4-one] yielded a melting point of 153 to 155 °C.

`C#CCOc1ccc(NS(=O)(=O)c2ccccc2)c(-c2cc(=O)c3ccccc3o2)c1` [Compound 7, N-(2-(4-Oxo-4H-chromen-2-yl)-4-(prop-2-ynyloxy)phenyl)benzene sulfonamide] gave a melting point of 152 to 154 °C. Also, the inhibition at 100 µM in data set [1] came to 21 ± 7%.

With `O=c1cc(-c2cc(O)ccc2NS(=O)(=O)c2ccccc2)oc2ccccc12` [Compound 8, N-(4-Hydroxy-2-(4-oxo-4H-chromen-2-yl)phenyl)benzene Sulfonamide], the melting point was over 200 °C.

Molecule `C#CCOc1ccc(NC(=O)c2ccccc2)c(-c2cc(=O)c3ccccc3o2)c1` [Compound 11, N-(2-(4-Oxo-4H-chromen-2-yl)-4-(prop-2-ynyloxy)phenyl) benzamide] displayed a melting point of 154 to 156 °C.

On to `O=C(Nc1ccc(O)cc1-c1cc(=O)c2ccccc2o1)c1ccccc1` [Compound 12, N-(4-Hydroxy-2-(4-oxo-4H-chromen-2-yl)phenyl)benzamide], for which the melting point was over 200 °C.

Molecule `Nc1ccc(O)cc1-c1cc(=O)c2ccc(F)cc2o1` [Compound 13, 2-(2-Amino-5-hydroxyphenyl)-7-fluoro-4H-chromen-4-one] displayed a melting point of 200 to 202 °C. For the same molecule, the inhibition at 100 µM in data set [1] (setting [3]) was found to be 21 ± 8.4%.

Take `Nc1ccc(O)cc1-c1cc(=O)c2cc(Br)ccc2o1` [Compound 14, 2-(2-Amino-5-hydroxyphenyl)-6-bromo-4H-chromen-4-one]: the melting point is over 200 °C. The inhibition at 100 µM in data set [1] (setting [3]) stood at 6.95 ± 1.6%.

Take `O=c1cc(-c2cc(O)ccc2NS(=O)(=O)c2ccc([N+](=O)[O-])cc2)oc2ccccc12` [Compound 15, N-(4-Hydroxy-2-(4-oxo-4H-chromen-2-yl)phenyl)-4-nitrobenzenesulfonamide]: the melting point is over 200 °C. Further, the inhibition at 100 µM in data set [1] (setting [3]) was determined as 6.33 ± 5.9%.

Take `Nc1ccc(O)cc1-c1cc(=O)c2cc(O)ccc2o1` [Compound 16, 2-(2-Amino-5-hydroxyphenyl)-6-hydroxy-4H-chromen-4-one]: the melting point lay in the range of 130 to 132 °C. Also, the inhibition at 100 µM in data set [1] (setting [3]) is 38.3 ± 3.8%.

In turn, `O=c1cc(-c2cc(O)ccc2NS(=O)(=O)c2ccc(C(F)(F)F)cc2)oc2ccccc12` [Compound 17, N-(4-Hydroxy-2-(4-oxo-4H-chromen-2-yl)phenyl)-4-(trifluoromethyl)benzenesulfonamide] yielded a melting point of 160 to 162 °C. The inhibition at 100 µM in data set [1] (setting [3]) came out at 30 ± 5%.

`Nc1ccc(O)cc1-c1cc(=O)c2ccc(Br)cc2o1` [Compound 18, 2-(2-Amino-5-hydroxyphenyl)-7-bromo-4H-chromen-4-one] yielded a melting point of over 200 °C. The molecule also gave an IC50 in data set [1] (setting [2]) of 98.1 µM. Further, in data set [1] (setting [3]), the inhibition at 100 µM was 53.5 ± 4.2%.
